Patent US20080081798A1, “Pharmaceutical combinations for the treatment of head-aches and migraine attacks as well as blisters and packs that contain them” (priority 2006, published 2008)

Test system: patients suffering from migraine (moderate or severe migraine attacks)
Assay: Double-blind, randomized, cross-over, placebo-controlled study of rizatriptan and trimebutine for treating migraine
Format: in vivo, human
Experimental: Thirty-two patients (24 women and 8 men, aged between 21 and 61, average=39.7) suffering from migraine according to the criteria of the International Headache Association were randomized to treat 2 consecutive moderate or severe attacks with a tablet of 10 mg of rizatriptan and a capsule of 200 mg of trimebutine and 2 attacks with the same amount of triptan and placebo, and vice-versa. The severity of the attacks, as well as the presence of nauseas and photophobia at the moment of ingesting the drug after 1, 2 and 4 hours were collected.

CN(C)CCc1c[nH]c2ccc(Cn3cncn3)cc12 [rizatriptan]
without pain after 1 hour (share of the 38 attacks without pain) (10 mg rizatriptan tablet with 200 mg trimebutine capsule or placebo, 1 hour, of the 38 attacks, p<0.001): 21.1% | without pain after 2 hours (share of the 67 attacks) (10 mg rizatriptan tablet with 200 mg trimebutine capsule or placebo, 2 hours, of the 67 attacks, p<0.0001): 29.9% | adverse events present (number of attacks treated) (64 attacks treated with each drug regimen): 18 attacks | free from nausea after 1 hour (1 hour, p<0.001): 23.7% | free from photophobia after 1 hour (1 hour, p<0.001): 26.7%
